This note sets out measurements from the NIST ThermoML archive (doi:10.1016/j.fluid.2007.02.007).

Numbers after ± are expanded uncertainties.

The conditions of series [1]: Crystal.
A short description of series [2]: Solid-liquid equilibrium temperature. The conditions noted are these: Crystal.

As for `CCCCCCCCCCCCCC(=O)O` [tetradecanoic acid], the Normal melting temperature in series [1] turned out to be 54.4 ± 1.2 °C. For the same molecule, the Solid-liquid equilibrium temperature came to 332.3 ± 1.2 K in series [2] (20000 kPa); 337.25 ± 1.2 K in series [2] (40000 kPa); 342.31 ± 1.2 K in series [2] (60000 kPa); 344.68 ± 1.2 K in series [2] (70000 kPa); 346.55 ± 1.2 K in series [2] (80000 kPa); 348.93 ± 1.2 K in series [2] (90000 kPa).

As to `CCCCCCCCCCCC(=O)O` [dodecanoic acid], the Normal melting temperature in series [1] was found to be 43.03 ± 1.2 °C. The Solid-liquid equilibrium temperature in series [2] (20000 kPa) is listed as 320.6 ± 1.2 K; in series [2] (40000 kPa) it was 325.17 ± 1.2 K; in series [2] (60000 kPa), 329.76 ± 1.2 K; in series [2] (70000 kPa), 331.86 ± 1.2 K; in series [2] (80000 kPa) it was 334.1 ± 1.2 K; in series [2] (90000 kPa), 336.1 ± 1.2 K.

In the case of `CCCCCCCC(=O)O` [octanoic acid], in series [1], the Normal melting temperature came to 16.71 ± 1.2 °C. The Solid-liquid equilibrium temperature in series [2] (20000 kPa) was 294.52 ± 1.2 K; in series [2] (40000 kPa), 299.35 ± 1.2 K; in series [2] (60000 kPa) it was 303.85 ± 1.2 K; in series [2] (80000 kPa), 308.09 ± 1.2 K; in series [2] (90000 kPa) it was 309.98 ± 1.2 K.
